This passage reports IC50 results from patent US20240116985A1, “STAPLED PEPTIDES AND METHODS THEREOF” (priority 2020, published 2024).

Read-outs that look alike come from different tables or passages of the source.

As a reminder, the IC50 is the midpoint of a concentration-inhibition curve.

Assay [1] deals with T1, full-length beta-Catenin (Uniprot ID P35222) (Homo sapiens, UniProt P35222).
T1 construct: 10 nM full-length beta-Catenin (Uniprot ID P35222)
T1 sequence (P35222 1-781): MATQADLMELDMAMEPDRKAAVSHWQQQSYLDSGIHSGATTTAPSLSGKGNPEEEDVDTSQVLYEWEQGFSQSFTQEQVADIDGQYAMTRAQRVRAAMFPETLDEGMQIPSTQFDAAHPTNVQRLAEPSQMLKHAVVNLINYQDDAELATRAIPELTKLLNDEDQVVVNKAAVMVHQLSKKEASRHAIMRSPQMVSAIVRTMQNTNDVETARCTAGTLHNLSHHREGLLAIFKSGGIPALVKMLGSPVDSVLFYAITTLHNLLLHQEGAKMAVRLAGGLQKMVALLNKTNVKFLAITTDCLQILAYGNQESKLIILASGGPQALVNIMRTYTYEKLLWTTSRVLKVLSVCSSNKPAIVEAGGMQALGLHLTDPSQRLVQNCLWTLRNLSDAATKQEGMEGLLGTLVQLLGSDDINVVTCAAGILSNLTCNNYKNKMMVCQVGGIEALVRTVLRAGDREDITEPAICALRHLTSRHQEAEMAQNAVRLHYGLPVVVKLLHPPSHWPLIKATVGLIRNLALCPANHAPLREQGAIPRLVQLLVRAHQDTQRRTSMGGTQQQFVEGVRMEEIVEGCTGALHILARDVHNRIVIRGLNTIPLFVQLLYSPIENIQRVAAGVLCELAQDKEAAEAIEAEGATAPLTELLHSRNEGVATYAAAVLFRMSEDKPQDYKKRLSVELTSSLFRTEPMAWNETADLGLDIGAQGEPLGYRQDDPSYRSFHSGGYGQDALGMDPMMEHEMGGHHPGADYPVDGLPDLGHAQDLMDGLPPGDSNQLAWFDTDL
The experiment in a line: Fluorescence polarization IC50 (beta-catenin / 5FAM-TCF4 10-53 competition). To be noted: fluorescence polarization. It is filed as binding. A general note: In fluorescence polarisation assays a small probe gives low polarisation when free and higher when bound to something large.

Assay [2] has as its target T2, beta-catenin/TCF4 engagement (Homo sapiens, UniProt P35222).
T2 construct: expressed in transfected cells; host or cells: HEK293
T2 sequence (P35222 1-781): T1 sequence (P35222 1-781)
The assay can be described thus: Nano-BRET target engagement assay (B-cat-Halo & TCF4-Luc in HEK293 cells). It is filed as cell-based. To be noted: absolute IC50. (In general: BRET reads energy transfer from a luciferase to a nearby fluorophore.)

Consider `CC(=O)NCCCC[C@@H]1NC(=O)[C@H](CCC(N)=O)NC(=O)[C@H](CC(=O)O)NC(=O)C2(CCCC=CCCCOC(=O)N3CC[C@@](C(=O)N[C@@H](Cc4ccccc4)C(=O)N[C@@H](Cc4csc5ccccc45)C(=O)N[C@@H](CC(=O)N4CCOCC4)C(N)=O)(C3)NC(=O)[C@H](CC(C)C)NC(=O)[C@H](Cc3ccccc3)NC(=O)[C@H](C)NC1=O)CCCC=CC[C@]1(CCCN1C(C)=O)C(=O)N[C@@H](CC(N)=O)C(=O)N[C@@H](CC1CCCCC1)C(=O)N2` (stereo partly drawn) [I-2522, Ac-PL3-Asn-Cha-B5-Asp-Gln-[Ac]Lys-Ala-Phe-Leu-PyrS2-Phe-BztA-MorphAsn-NH2], for which the half-inhibitory concentration (IC50) was 219 nM in assay [1] (read-out: beta-Catenin FP IC50) and more than 20 µM in assay [2] (read-out: NanoBRET Abs IC50).
`CC(=O)N1CCC[C@]12CC=CCCCC1(CCCC=CCCCOC(=O)N3CC[C@@](C(=O)N[C@@H](Cc4ccccc4)C(=O)N[C@@H](Cc4csc5ccccc45)C(=O)N[C@@H](CC(=O)N4CCOCC4)C(N)=O)(C3)NC(=O)[C@H](CC(C)C)NC(=O)[C@H](Cc3ccccc3)NC(=O)[C@H](C)NC(=O)[C@H](CCCCNC(=O)c3ccccc3)NC(=O)[C@H](CCC(N)=O)NC(=O)[C@H](CC(=O)O)NC1=O)NC(=O)[C@H](CC1CCCCC1)NC(=O)[C@H](CC(N)=O)NC2=O` (stereo partly drawn) [I-2523, Ac-PL3-Asn-Cha-B5-Asp-Gln-[Phc]Lys-Ala-Phe-Leu-PyrS2-Phe-BztA-MorphAsn-NH2]: the IC50 is 1730 nM in assay [1] (beta-Catenin FP IC50 (nM)) and more than 20 µM in assay [2] (NanoBRET Abs IC50 (uM)).
Consider `COCCOCCOCCOCCC(=O)NCCCC[C@@H]1NC(=O)[C@H](CCC(N)=O)NC(=O)[C@H](CC(=O)O)NC(=O)C2(CCCC=CCCCOC(=O)N3CC[C@@](C(=O)N[C@@H](Cc4ccccc4)C(=O)N[C@@H](Cc4csc5ccccc45)C(=O)N[C@@H](CC(=O)N4CCOCC4)C(N)=O)(C3)NC(=O)[C@H](CC(C)C)NC(=O)[C@H](Cc3ccccc3)NC(=O)[C@H](C)NC1=O)CCCC=CC[C@]1(CCCN1C(C)=O)C(=O)N[C@@H](CC(N)=O)C(=O)N[C@@H](CC1CCCCC1)C(=O)N2` (stereo partly drawn) [I-2526, Ac-PL3-Asn-Cha-B5-Asp-Gln-[mPEG4]Lys-Ala-Phe-Leu-PyrS2-Phe-BztA-MorphAsn-NH2], for which the IC50 in assay [1] (read-out: beta-Catenin FP IC50) was 224 nM; in assay [2] (read-out: NanoBRET Abs IC50), more than 20 µM.
For `CC(=O)N1CCC[C@]12CC=CCCCC1(CCCC=CCCCOC(=O)N3CC[C@@](C(=O)N[C@@H](Cc4ccccc4)C(=O)N[C@@H](Cc4csc5ccccc45)C(=O)N[C@@H](CC(=O)N4CCOCC4)C(N)=O)(C3)NC(=O)[C@H](CC(C)C)NC(=O)[C@H](Cc3ccccc3)NC(=O)[C@H](C)NC(=O)[C@H](CCCCNC(=O)CN3CCOCC3)NC(=O)[C@H](CCC(N)=O)NC(=O)[C@H](CC(=O)O)NC1=O)NC(=O)[C@H](CC1CCCCC1)NC(=O)[C@H](CC(N)=O)NC2=O` (stereo partly drawn) [I-2527, Ac-PL3-Asn-Cha-B5-Asp-Gln-[MorphAc]Lys-Ala-Phe-Leu-PyrS2-Phe-BztA-MorphAsn-NH2] the same measures were 263 nM and more than 20 µM.
For `CC(=O)N1CCC[C@]12CC=CCCCC1(CCCC=CCCCOC(=O)N3CC[C@@](C(=O)N[C@@H](Cc4ccccc4C(F)(F)F)C(=O)N[C@@H](Cc4csc5ccccc45)C(=O)N[C@@H](CCC(=O)N(C)C)C(N)=O)(C3)NC(=O)[C@H](Cc3ccccc3)NC(=O)[C@H](Cc3ccccc3)NC(=O)[C@H](C)NC(=O)[C@H](C)NC(=O)[C@H](Cc3cccc(C(=O)O)c3)NC(=O)[C@H](CC(=O)O)NC1=O)NC(=O)[C@H](CC(C)(C)C)NC(=O)[C@H](CC(=O)O)NC2=O` (stereo partly drawn) [I-2534, Ac-PL3-Asp-Npg-B5-Asp-3COOHF-Ala-Ala-Phe-Phe-PyrS2-2F3MeF-BztA-Me2Gln-NH2] the same measures were 21 nM and 4.4 µM.
The like results for `CC(=O)N1CCC[C@]12CC=CCCCC1(CCCC=CCCCOC(=O)N3CC[C@@](C(=O)N[C@@H](Cc4ccccc4C(F)(F)F)C(=O)N[C@@H](Cc4csc5ccccc45)C(=O)N[C@@H](CCC(=O)N(C)C)C(N)=O)(C3)NC(=O)[C@H](CCC(=O)N(C)C)NC(=O)[C@H](Cc3ccccc3)NC(=O)[C@H](C)NC(=O)[C@H](C)NC(=O)[C@H](Cc3cccc(C(=O)O)c3)NC(=O)[C@H](CC(=O)O)NC1=O)NC(=O)[C@H](CC(C)(C)C)NC(=O)[C@H](CC(=O)O)NC2=O` (stereo partly drawn) [I-2535, Ac-PL3-Asp-Npg-B5-Asp-3COOHF-Ala-Ala-Phe-Me2Gln-PyrS2-2F3MeF-BztA-Me2Gln-NH2] were, in that order, 11 nM and 3.7 µM.
For `CC(=O)N1CCC[C@]12CC=CCCCC1(CCCC=CCCCOC(=O)N3CC[C@@](C(=O)N[C@@H](Cc4ccccc4C(F)(F)F)C(=O)N[C@@H](Cc4csc5ccccc45)C(=O)N[C@@H](CCC(=O)N(C)C)C(N)=O)(C3)NC(=O)[C@H](CCC(=O)N(C)C)NC(=O)[C@H](Cc3ccccc3)NC(=O)[C@H](C)NC(=O)[C@H](C)NC(=O)[C@H](Cc3cccc(C(=O)O)c3)NC(=O)[C@H](CC(=O)O)NC1=O)NC(=O)[C@H](CC(C)(C)C)NC(=O)[C@H](CC(=O)O)NC2=O` (stereo partly drawn) [I-2536, Ac-PL3-Asp-Npg-B5-Asp-3COOHF-Ala-Ala-Phe-Me2Gln-PyrS2-2F3MeF-BztA-Me2Gln-NH2], the concentration for half-maximal inhibition (IC50) in assay [1] (read-out: beta-Catenin FP IC50) was 13 nM; in assay [2] (read-out: NanoBRET Abs IC50), 4.5 µM.
Consider `CC(=O)N1CCC[C@]12CC=CCCCC1(CCCC=CCCCOC(=O)N3CC[C@@](C(=O)N[C@@H](Cc4ccccc4C(F)(F)F)C(=O)N[C@@H](Cc4csc5ccccc45)C(=O)N[C@@H](CCC(=O)N(C)C)C(N)=O)(C3)NC(=O)[C@H](CCC(=O)N3CCOCC3)NC(=O)[C@H](Cc3ccccc3)NC(=O)[C@H](C)NC(=O)[C@H](C)NC(=O)[C@H](Cc3cccc(C(=O)O)c3)NC(=O)[C@H](CC(=O)O)NC1=O)NC(=O)[C@H](CC(C)(C)C)NC(=O)[C@H](CC(=O)O)NC2=O` (stereo partly drawn) [I-2537, Ac-PL3-Asp-Npg-B5-Asp-3COOHF-Ala-Ala-Phe-MorphGln-PyrS2-2F3MeF-BztA-Me2Gln-NH2], for which the IC50 in assay [1] (read-out: beta-Catenin FP IC50) is 11 nM; in assay [2] (read-out: NanoBRET Abs IC50) it was 2.9 µM.
Consider `CC(=O)N1CCC[C@]12CC=CCCCC1(CCCC=CCCCOC(=O)N3CC[C@@](C(=O)N[C@@H](Cc4ccccc4C(F)(F)F)C(=O)N[C@@H](Cc4csc5ccccc45)C(=O)N[C@@H](CCC(=O)N(C)C)C(N)=O)(C3)NC(=O)[C@H](CCC(=O)N3CCOCC3)NC(=O)[C@H](Cc3ccccc3)NC(=O)[C@H](C)NC(=O)[C@H](C)NC(=O)[C@H](Cc3cccc(C(=O)O)c3)NC(=O)[C@H](CC(=O)O)NC1=O)NC(=O)[C@H](CC(C)(C)C)NC(=O)[C@H](CC(=O)O)NC2=O` (stereo partly drawn) [I-2538, Ac-PL3-Asp-Npg-B5-Asp-3COOHF-Ala-Ala-Phe-MorphGln-PyrS2-2F3MeF-BztA-Me2Gln-NH2], for which the 50% inhibitory concentration (IC50) in assay [1] (read-out: beta-Catenin FP IC50) amounted to 14 nM; in assay [2] (read-out: NanoBRET Abs IC50), 3.5 µM.
Consider `CC(=O)NCCCC[C@@H]1NC(=O)[C@H](Cc2ccccc2)NC(=O)[C@H](C)NC(=O)[C@H](C)NC(=O)[C@H](Cc2cccc(C(=O)O)c2)NC(=O)[C@H](CC(=O)O)NC(=O)C2(CCCC=CCCCOC(=O)N3CC[C@@](C(=O)N[C@@H](Cc4ccccc4C(F)(F)F)C(=O)N[C@@H](Cc4csc5ccccc45)C(=O)N[C@@H](CCC(=O)N(C)C)C(N)=O)(C3)NC1=O)CCCC=CC[C@]1(CCCN1C(C)=O)C(=O)N[C@@H](CC(=O)O)C(=O)N[C@@H](CC(C)(C)C)C(=O)N2` (stereo partly drawn) [I-2539, Ac-PL3-Asp-Npg-B5-Asp-3COOHF-Ala-Ala-Phe-AcLys-PyrS2-2F3MeF-BztA-Me2Gln-NH2], for which the IC50 in assay [1] (read-out: beta-Catenin FP IC50) amounted to 11 nM; in assay [2] (read-out: NanoBRET Abs IC50), 3.6 µM.
For the molecule `CC(=O)NCCCC[C@@H]1NC(=O)[C@H](Cc2ccccc2)NC(=O)[C@H](C)NC(=O)[C@H](C)NC(=O)[C@H](Cc2cccc(C(=O)O)c2)NC(=O)[C@H](CC(=O)O)NC(=O)C2(CCCC=CCCCOC(=O)N3CC[C@@](C(=O)N[C@@H](Cc4ccccc4C(F)(F)F)C(=O)N[C@@H](Cc4csc5ccccc45)C(=O)N[C@@H](CCC(=O)N(C)C)C(N)=O)(C3)NC1=O)CCCC=CC[C@]1(CCCN1C(C)=O)C(=O)N[C@@H](CC(=O)O)C(=O)N[C@@H](CC(C)(C)C)C(=O)N2` (stereo partly drawn) [I-2540, Ac-PL3-Asp-Npg-B5-Asp-3COOHF-Ala-Ala-Phe-AcLys-PyrS2-2F3MeF-BztA-Me2Gln-NH2], the figures for the IC50 in assay [1] (read-out: beta-Catenin FP IC50) and in assay [2] (read-out: NanoBRET Abs IC50) were 14 nM and 3.5 µM, respectively.
As for `CC(=O)N1CCC[C@]12CC=CCCCC1(CCCC=CCCCOC(=O)N3CC[C@@](C(=O)N[C@@H](Cc4ccccc4C(F)(F)F)C(=O)N[C@@H](Cc4csc5ccccc45)C(=O)N[C@@H](CCC(=O)N4CCOCC4)C(N)=O)(C3)NC(=O)[C@H](Cc3ccccc3)NC(=O)[C@H](Cc3ccccc3)NC(=O)[C@H](C)NC(=O)[C@H](C)NC(=O)[C@H](Cc3cccc(C(=O)O)c3)NC(=O)[C@H](CC(=O)O)NC1=O)NC(=O)[C@H](CC(C)(C)C)NC(=O)[C@H](CC(=O)O)NC2=O` (stereo partly drawn) [I-2543, Ac-PL3-Asp-Npg-B5-Asp-3COOHF-Ala-Ala-Phe-Phe-PyrS2-2F3MeF-BztA-MorphGln-NH2], the IC50 was found to be 37 nM in assay [1] (read-out: beta-Catenin FP IC50) and 7.3 µM in assay [2] (read-out: NanoBRET Abs IC50).
